The source of these data is patent US10501516B2, “Peptide compound” (TAKEDA PHARMACEUTICAL COMPANY LIMITED, priority 2016, dated 2019).

Structures are written as SMILES. Square brackets hold non-standard residues; d marks the D form. Side chains are listed from the residue outwards. Peptide text beside a SMILES is read from it. * marks the point of attachment. C18 diacid = O=C(O)CCCCCCCCCCCCCCCCC(=O)*; NMeY = CN[C@@H](Cc1ccc(O)cc1)C(=O)O; Palmitoyl = CCCCCCCCCCCCCCCC(=O)*; αMeF = C[C@](N)(Cc1ccccc1)C(=O)O; Iva = CC[C@](C)(N)C(=O)O; Aib = CC(C)(N)C(=O)O

One assay addresses T1, human NPY2R (Homo sapiens, UniProt P49146).
T1 construct: expressed in transfected cells; host or cells: CHO-K1 Cre-luc reporter cells (pAKKO1114/hNPY2R#481 No. 88 cells)
T1 sequence (P49146 1-381): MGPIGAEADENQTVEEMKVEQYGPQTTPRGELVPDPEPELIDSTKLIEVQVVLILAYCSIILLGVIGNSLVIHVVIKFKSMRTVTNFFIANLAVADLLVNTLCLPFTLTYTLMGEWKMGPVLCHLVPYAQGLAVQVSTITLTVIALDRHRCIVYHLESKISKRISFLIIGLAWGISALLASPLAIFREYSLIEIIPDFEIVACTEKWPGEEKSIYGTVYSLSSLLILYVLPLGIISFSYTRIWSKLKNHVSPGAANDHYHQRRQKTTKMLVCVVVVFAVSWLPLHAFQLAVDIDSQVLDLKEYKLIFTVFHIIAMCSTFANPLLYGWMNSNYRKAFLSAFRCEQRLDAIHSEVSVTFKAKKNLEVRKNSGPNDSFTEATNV
Briefly: Reporter assay of human NPY2R gene (agonist activity, decrease in intracellular cAMP as index). The class given is cell-based. As to conditions: Cre-luc reporter, hNPY2R CHO-K1 cells, forskolin 1.2 μM, 4 hours; read-out: Agonist activity (EC50) hY2R. An excerpt: (§1) Evaluation of Agonist Activity Against Human NPY2R, Human GIPR, and Human GLP-1R Using Change in Intracellular cAMP Concentration as Index
The human NPY2R gene having a sequence identical to the sequence of GenBank Accession No. AC104407 was cloned into pAKKO1114 vector to prepare hNPY2R/pAKKO1114. Next, pGL4.29 (Promega) was introduced to CHO-K1 cells, which were then screened with hygromycin to construct Cre-luc reporter cells. These cells were cotransfected with hNPY2R/pAKKO1114 and pcDNA3.1 (Life Technologies Corp.), and the cells were screened with geneticin. Next, a cell line induced to express luciferase, i.e., pAKKO1114/hNPY2R#481 No. 88 cells, were selected from the obtained transformants by the addition of human PYY (3-36).
The pAKKO1114/hNPY2R#481 No. 88 cells were inoculated at a cell density of 25 μL/well (5,000 cells/well) to a 384-well white plate (Corning, 3570), and cultured overnight in Ham F12 medium containing 10% fetal bovine serum, 100 U/mL penicillin and 100 μg/mL streptomycin in a CO2 incubator of 37° C. On the next day, the medium was removed, and an assay medium (Ham F12 medium containing 0.1% BSA, 100 U/mL penicillin and 100 μg/mL streptomycin) containing forskolin (final concentration: 1.2 μM) was added at a concentration of 25 μL/well to the cells. Next, an assay medium containing a test compound was added at a concentration of 5 μL/well to the cells, and the resultant cells were incubated for 4 hours in a CO2 incubator of 37° C. to give the final concentration of 1 μM. SteadyGlo (Promega) was added thereto at a concentration of 30 μL/well, and the mixture was left standing for 20 minutes with light shielded. The luciferase activity was measured using a plate reader Envision (PerkinElmer). The luciferase activity from the addition of DMSO was defined as 100%, and the luciferase activity from the addition of 1 μM human PYY(3-36) instead of the test compound was defined as 0%. The NPY2R agonist activity was calculated with a decrease in intracellular cAMP concentration as an index.
(Reporter assays use an easily measured gene product as a stand-in for the process of interest.)

The next assay deals with male C57BL/6J mouse. The experiment in a line: Evaluation of feeding suppressive action in mice. As to conditions: 30 nmol/kg s.c. once a day for 3 days; 3-days cumulative food consumption vs solvent control. The class given is in vivo. Put shortly: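 Male C57BL/6J mice, 8-9 weeks, ad libitum fed, given compound (30 or 100 nmol/2 mL in 10% DMSO saline) s.c. at 2 mL/kg once daily for 3 days. Cumulative 3-day food consumption measured by weighing; suppression rate (%) calculated relative to vehicle controls.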

In the next assay the target is T2, human GIPR (Homo sapiens, UniProt P48546).
T2 construct: expressed in transfected cells; host or cells: CHO-K1 Cre-luc reporter cells (hGIPR/CHO-K1, also called hGIPR/CRE-LUC/CHO-K1)
T2 sequence (P48546 22-466): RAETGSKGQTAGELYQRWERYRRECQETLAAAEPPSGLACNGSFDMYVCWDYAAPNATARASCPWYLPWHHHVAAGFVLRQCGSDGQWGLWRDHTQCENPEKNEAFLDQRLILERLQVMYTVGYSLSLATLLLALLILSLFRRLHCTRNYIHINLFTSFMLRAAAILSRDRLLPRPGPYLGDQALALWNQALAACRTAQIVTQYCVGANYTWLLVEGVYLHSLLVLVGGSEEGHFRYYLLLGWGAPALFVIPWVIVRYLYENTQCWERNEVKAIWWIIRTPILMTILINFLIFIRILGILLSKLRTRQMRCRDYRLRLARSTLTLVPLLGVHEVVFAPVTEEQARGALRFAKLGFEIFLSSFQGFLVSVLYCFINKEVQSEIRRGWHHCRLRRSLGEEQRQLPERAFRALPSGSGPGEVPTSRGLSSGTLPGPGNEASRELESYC
The experiment in a line: Reporter assay of human GIPR gene (agonist activity, intracellular cAMP as index). As to conditions: Cre-luc reporter, hGIPR/CHO-K1 cells, 4 hours. It is filed as cell-based.
Description: as §1
The human GIPR gene having a sequence identical to the sequence of GenBank Accession No. U39231 was cloned into pMSRα-neo vector to prepare hGIPR/pMSRα-neo. This vector was introduced to the Cre-luc reporter cells obtained in (1) to obtain transformants. Next, a cell line induced to express luciferase, i.e., hGIPR/CHO-K1 cells, were selected from the obtained transformants by the addition of GIP.
The hGIPR/CRE-LUC/CHO-K1 cells or the hGLP-1R/Crel cells were inoculated at a cell density of 25 μL/well (5,000 cells/well) to a 384-well white plate (Corning, 3570), and cultured overnight in Ham F12 medium containing 10% fetal bovine serum, 100 U/mL penicillin and 100 μg/mL streptomycin in a CO2 incubator of 37° C. On the next day, a medium containing a test compound was added at a concentration of 5 μL/well to the cells, and the resultant cells were incubated for 4 hours in a CO2 incubator of 37° C. to give the final concentration of 1 μM. SteadyGlo (Promega) was added thereto at a concentration of 30 μL/well, and the mixture was shaken with light shielded. After 30 minutes, the luciferase activity was measured using a plate reader Envision (PerkinElmer). For the GIPR agonist activity, the luciferase activity in the presence of 10 μM GIP was defined as 100%, and the luciferase activity from the addition of DMSO instead of the test compound was defined as 0%. The GIPR agonist activity was calculated with a rise in intracellular cAMP concentration as an index.

Regarding `CCCCCCCCCCCCCCCC(=O)NCC(=O)NCC(=O)NCC(=O)NCC(=O)NCCCC[C@H](NC(=O)[C@H](CC(=O)O)NC(=O)[C@H](CO)NC(=O)[C@@H](NC(=O)[C@](C)(Cc1ccccc1)NC(=O)[C@@H](NC(=O)CNC(=O)[C@H](CCC(=O)O)NC(=O)C(C)(C)NC(=O)[C@@H](N)Cc1ccc(O)cc1)[C@@H](C)O)[C@@H](C)O)C(=O)NC(C)(C)C(=O)N[C@H](C(=O)NC(C)(C)C(=O)N[C@@H](CC(C)C)C(=O)N[C@@H](CC(=O)O)C(=O)N[C@@H](CCCCN)C(=O)N[C@@H](CCC(N)=O)C(=O)N[C@@H](CCCNC(=N)N)C(=O)N[C@@H](CCC(N)=O)C(=O)N[C@@](C)(CC)C(=O)N[C@@H](CCC(=O)O)C(=O)N[C@@H](Cc1ccccc1)C(=O)N[C@H](C(=O)N[C@@H](CCCNC(=N)N)C(=O)N[C@@H](Cc1c[nH]cn1)C(=O)N[C@@H](CC(C)C)C(=O)N[C@@H](CC(C)C)C(=O)N[C@@H](CC(N)=O)C(=O)N[C@@H](CCCCN)C(=O)NC(C)(C)C(=O)N[C@H](C(=O)N[C@@H](CCCNC(=N)N)C(=O)N[C@@H](CCC(N)=O)C(=O)N[C@@H](CCCNC(=N)N)C(=O)N[C@@H](Cc1ccc(O)cc1)C(N)=O)[C@@H](C)O)C(C)C)[C@@H](C)CC` [Example 7] (H-Y[Aib]EGT[αMeF]TSDK([Gly-Gly-Gly-Gly-Palmitoyl])[Aib]I[Aib]LDKQRQ[Iva]EFVRHLLNK[Aib]TRQRY-NH2), the EC50 is 0.1 nM at human NPY2R and 0.068 nM on human GIPR. Also, the “Rate of feeding suppression (%)” value with male C57BL/6J mouse is −37.6%.

Consider `CCCCCCCCCCCCCCCC(=O)NCC(=O)NCC(=O)NCC(=O)NCC(=O)NCCCC[C@H](NC(=O)[C@H](CC(=O)O)NC(=O)[C@H](CO)NC(=O)[C@@H](NC(=O)[C@](C)(Cc1ccccc1)NC(=O)[C@@H](NC(=O)CNC(=O)[C@H](CCC(=O)O)NC(=O)C(C)(C)NC(=O)[C@H](Cc1ccc(O)cc1)NC)[C@@H](C)O)[C@@H](C)O)C(=O)NC(C)(C)C(=O)N[C@H](C(=O)NC(C)(C)C(=O)N[C@@H](CC(C)C)C(=O)N[C@@H](CC(=O)O)C(=O)N[C@@H](CCCCN)C(=O)N[C@@H](CCC(N)=O)C(=O)N[C@@H](CCCNC(=N)N)C(=O)N[C@@H](CCC(N)=O)C(=O)N[C@@](C)(CC)C(=O)N[C@@H](CCC(=O)O)C(=O)N[C@@H](Cc1ccccc1)C(=O)N[C@H](C(=O)N[C@@H](CCCNC(=N)N)C(=O)N[C@@H](Cc1c[nH]cn1)C(=O)N[C@@H](CC(C)C)C(=O)N[C@@H](CC(C)C)C(=O)N[C@@H](CC(N)=O)C(=O)N[C@@H](CCCCN)C(=O)NC(C)(C)C(=O)N[C@H](C(=O)N[C@@H](CCCNC(=N)N)C(=O)N[C@@H](CCC(N)=O)C(=O)N[C@@H](CCCNC(=N)N)C(=O)N[C@@H](Cc1ccc(O)cc1)C(N)=O)[C@@H](C)O)C(C)C)[C@@H](C)CC` [Example 9] (H-[NMeY][Aib]EGT[αMeF]TSDK([Gly-Gly-Gly-Gly-Palmitoyl])[Aib]I[Aib]LDKQRQ[Iva]EFVRHLLNK[Aib]TRQRY-NH2), for which the EC50 on human NPY2R came out at 0.1 nM; at human GIPR, 0.068 nM.

Regarding `CC[C@H](C)[C@H](NC(=O)C(C)(C)NC(=O)[C@H](CCCCNC(=O)CNC(=O)CNC(=O)CNC(=O)CNC(=O)CCCCCCCCCCCCCCCCC(=O)O)NC(=O)[C@H](CC(=O)O)NC(=O)[C@H](CO)NC(=O)[C@@H](NC(=O)[C@](C)(Cc1ccccc1)NC(=O)[C@@H](NC(=O)CNC(=O)[C@H](CCC(=O)O)NC(=O)C(C)(C)NC(=O)[C@H](Cc1ccc(O)cc1)NC)[C@@H](C)O)[C@@H](C)O)C(=O)NC(C)(C)C(=O)N[C@@H](CC(C)C)C(=O)N[C@@H](CCC(=O)O)C(=O)N[C@@H](CCCCN)C(=O)N[C@@H](CCC(N)=O)C(=O)N[C@@H](CCCNC(=N)N)C(=O)N[C@@H](CCC(N)=O)C(=O)N[C@@](C)(CC)C(=O)N[C@@H](CCC(=O)O)C(=O)N[C@@H](Cc1ccccc1)C(=O)N[C@H](C(=O)N[C@@H](CCCNC(=N)N)C(=O)N[C@@H](Cc1c[nH]cn1)C(=O)N[C@@H](CC(C)C)C(=O)N[C@@H](CC(C)C)C(=O)N[C@@H](CC(N)=O)C(=O)N[C@@H](CCCCN)C(=O)NC(C)(C)C(=O)N[C@H](C(=O)N[C@@H](CCCNC(=N)N)C(=O)N[C@@H](CCC(N)=O)C(=O)N[C@@H](CCCNC(=N)N)C(=O)N[C@@H](Cc1ccc(O)cc1)C(N)=O)[C@@H](C)O)C(C)C` [Example 34] (H-[NMeY][Aib]EGT[αMeF]TSDK([Gly-Gly-Gly-Gly-C18 diacid])[Aib]I[Aib]LEKQRQ[Iva]EFVRHLLNK[Aib]TRQRY-NH2), the EC50 at human NPY2R was 1.5 nM. Moreover, in the assay on male C57BL/6J mouse, the “Rate of feeding suppression (%)” value is −39.9%.

As to `CC[C@H](C)[C@H](NC(=O)C(C)(C)NC(=O)[C@H](CCCCNC(=O)CNC(=O)CNC(=O)CNC(=O)CNC(=O)CCCCCCCCCCCCCCCCC(=O)O)NC(=O)[C@H](CC(=O)O)NC(=O)[C@H](CO)NC(=O)[C@@H](NC(=O)[C@](C)(Cc1ccccc1)NC(=O)[C@@H](NC(=O)CNC(=O)[C@H](CCC(=O)O)NC(=O)C(C)(C)NC(=O)[C@@H](N)Cc1ccc(O)cc1)[C@@H](C)O)[C@@H](C)O)C(=O)NC(C)(C)C(=O)N[C@@H](CC(C)C)C(=O)N[C@@H](CC(=O)O)C(=O)N[C@@H](CCCCN)C(=O)N[C@@H](CCC(N)=O)C(=O)N[C@@H](C)C(=O)N[C@@H](CCC(N)=O)C(=O)N[C@@](C)(CC)C(=O)N[C@@H](CCC(=O)O)C(=O)N[C@@H](Cc1ccccc1)C(=O)N[C@H](C(=O)N[C@@H](CCCNC(=N)N)C(=O)N[C@@H](Cc1c[nH]cn1)C(=O)N[C@@H](CC(C)C)C(=O)N[C@@H](CC(C)C)C(=O)N[C@@H](CC(N)=O)C(=O)N[C@@H](CCCCN)C(=O)NC(C)(C)C(=O)N[C@H](C(=O)N[C@@H](CCCNC(=N)N)C(=O)N[C@@H](CCC(N)=O)C(=O)N[C@@H](CCCNC(=N)N)C(=O)N[C@@H](Cc1ccc(O)cc1)C(N)=O)[C@@H](C)O)C(C)C` [Example 28] (H-Y[Aib]EGT[αMeF]TSDK([Gly-Gly-Gly-Gly-C18 diacid])[Aib]I[Aib]LDKQAQ[Iva]EFVRHLLNK[Aib]TRQRY-NH2), the EC50 is 2.4 nM on human NPY2R and 0.074 nM at human GIPR.

For orientation: EC50 means the concentration needed to bring the measured effect to its halfway point.
